Source: the OPERA property sets (Mansouri et al. 2018)

Conditions: not given

With `O=S(=O)(Cc1ccccc1)Cc1ccccc1` as the compound, how does the melting point read?
Its melting point is 152 °C.

For `O=C(c1ccccc1)c1ccccc1`, which ready biodegradability is on record?
The ready biodegradability was “not readily biodegradable”.

For `Cc1ccc2[nH]c(C)cc2c1`, which melting point is on record?
The melting point was 115 °C.

With `OCc1ccc(-c2ccccc2)cc1` as the compound, how does the log10 Koc (L/kg) read?
The log10 Koc (L/kg) was 2.54.

With `CCOC(C(=O)c1ccccc1)c1ccccc1` (stereo unspecified) as the compound, how does the melting point read?
Its melting point is 62 °C.

With `O=C(O)c1ccco1` as the compound, how does the boiling point read?
The boiling point was 231 °C.

And the melting point?
The melting point was 134 °C.

For `CCC(C)S` (stereo unspecified), which boiling point is on record?
Its boiling point is 84.5 °C.

What about the log10 vapour pressure (mmHg) of the same compound?
Its log10 vapour pressure (mmHg) is 1.91.

What about the melting point of the same compound?
Its melting point is -165 °C.

With `O=C1c2ccccc2C(=O)c2c(NCCO)ccc(NCCO)c21` as the compound, how does the melting point read?
The melting point was 248 °C.

For `CC(=O)[C@H]1CC[C@H]2[C@@H]3C=CC4=CC(=O)CC[C@@]4(C)[C@@H]3CC[C@]12C`, which melting point is on record?
The melting point was 170 °C.

For `Oc1ccc(Nc2ccc(O)cc2)cc1`, which melting point is on record?
The melting point was 174 °C.

With `CC(C)CC(C)CC(C)C` as the compound, how does the boiling point read?
The boiling point was 148 °C.

Which melting point does the source give for `COC1=C(O)C(=O)C(C)=C(O)C1=O` here?
Its melting point is 202 °C.

For `Clc1cc(Cl)c(-c2ccccc2)c(Cl)c1Cl`, which log10 Henry constant (atm·m³/mol) is on record?
The log10 Henry constant (atm·m³/mol) was -3.68.

With `CC(C)(C)NC[C@H](O)COc1ccccc1C1CCCC1` as the compound, how does the melting point read?
Its melting point is 70 °C.

Which melting point does the source give for `CCOc1ccc2nc(S)sc2c1` here?
Its melting point is 199 °C.

Which log10 vapour pressure (mmHg) does the source give for `O=C1c2ccccc2C(=O)c2c1cccc2[N+](=O)[O-]` here?
Its log10 vapour pressure (mmHg) is -8.4.

And the melting point?
The melting point was 232 °C.

Which boiling point does the source give for `COCCCl` here?
Its boiling point is 92.5 °C.

With `CCCCCCCCCCCCOS(=O)(=O)O` as the compound, how does the ready biodegradability read?
The ready biodegradability was “readily biodegradable”.

For `CCC(C)C(O)C(C)CC` (stereo unspecified), which boiling point is on record?
The boiling point was 186 °C.

Which melting point does the source give for `CC[C@H]1O[C@]2(CC[C@@H]1C)C[C@@H]1C[C@@H](CC=C(C)C[C@@H](C)C=CC=C3CO[C@@H]4[C@H](O)C(C)=C[C@@H](C(=O)O1)[C@]34O)O2` here?
The melting point was 214 °C.

For `C=CC(C)C(C)C` (stereo unspecified), which boiling point is on record?
The boiling point was 80.8 °C.

For `CC1(C)S[C@@H]2[C@H](NC(=O)C3(N)CCCCC3)C(=O)N2[C@H]1C(=O)O`, which melting point is on record?
The melting point was 182 °C.

With `CN1C2CCCC1CC(=O)C2` as the compound, how does the boiling point read?
The boiling point was 246 °C.

What about the melting point of the same compound?
Its melting point is 54 °C.

Which boiling point does the source give for `COc1ccc(NC(C)=O)cc1` here?
Its boiling point is 335 °C.

And the log10 Koc (L/kg)?
The log10 Koc (L/kg) was 1.4.

And the melting point?
The melting point was 131 °C.

Which boiling point does the source give for `CCCc1ccccn1` here?
The boiling point was 167 °C.

And the melting point?
The melting point was 2 °C.

With `ClCc1ccc(Cl)cc1Cl` as the compound, how does the boiling point read?
The boiling point was 248 °C.

And the log10 vapour pressure (mmHg)?
The log10 vapour pressure (mmHg) was -1.49.

And the melting point?
The melting point was -2.6 °C.

For `C#CCOC`, which boiling point is on record?
Its boiling point is 63 °C.

Which boiling point does the source give for `Cc1cccc(C#N)c1` here?
Its boiling point is 213 °C.

And the melting point?
Its melting point is -23 °C.

With `CCOC(=O)C(Br)C(C)C` (stereo unspecified) as the compound, how does the boiling point read?
Its boiling point is 186 °C.

For `O=C1C(=Cc2ccccc2)CCCC1=Cc1ccccc1`, which melting point is on record?
The melting point was 118 °C.

For `ClCc1ccccc1CCl`, which boiling point is on record?
The boiling point was 240 °C.

What about the melting point of the same compound?
The melting point was 55 °C.

With `Cc1cc(O)c2ccccc2c1O` as the compound, how does the melting point read?
Its melting point is 169 °C.

With `Cc1ccc2ccccc2c1[N+](=O)[O-]` as the compound, how does the melting point read?
Its melting point is 81.5 °C.

Which melting point does the source give for `C=C1C/C(=C/C)C(=O)O[C@@H]2CCN3CC=C(COC(=O)[C@]1(C)O)[C@H]23` here?
The melting point was 218 °C.

With `CCCCOC(=O)CC` as the compound, how does the boiling point read?
The boiling point was 147 °C.

And the log10 vapour pressure (mmHg)?
The log10 vapour pressure (mmHg) was 0.645.

And the melting point?
The melting point was -89 °C.

For `FC(F)C(F)(F)CBr`, which boiling point is on record?
The boiling point was 74 °C.

What does the source list for `CC(=O)Nc1cccc(C(F)(F)F)c1`?
log10 Koc (L/kg): 1.75; melting point: 104 °C

With `CC(C)(c1ccc(OCCO)cc1)c1ccc(OCCO)cc1` as the compound, how does the ready biodegradability read?
The ready biodegradability was “not readily biodegradable”.

Which log10 Koc (L/kg) does the source give for `CCCCOCCOC(=O)C(C)Oc1ccc(Cl)cc1Cl` (stereo unspecified) here?
Its log10 Koc (L/kg) is 3.

For `CCC(CC)CO`, which boiling point is on record?
Its boiling point is 147 °C.

And the log10 vapour pressure (mmHg)?
Its log10 vapour pressure (mmHg) is 0.185.

For `Clc1cc(Cl)c(Cl)c(-c2cc(Cl)c(Cl)c(Cl)c2Cl)c1`, which log10 Henry constant (atm·m³/mol) is on record?
The log10 Henry constant (atm·m³/mol) was -5.89.

With `CCCOC(=O)c1ccc(C(=O)OCCC)nc1` as the compound, how does the ready biodegradability read?
The ready biodegradability was “not readily biodegradable”.

For `CC(=O)O.CC(=O)O.N=C(NCCCCCCNC(=N)NC(=N)Nc1ccc(Cl)cc1)NC(=N)Nc1ccc(Cl)cc1`, which melting point is on record?
The melting point was 154 °C.

Which melting point does the source give for `Oc1c(Cl)cc(Cl)cc1Br` here?
The melting point was 68 °C.

For `COC(=O)CBr`, which boiling point is on record?
The boiling point was 132 °C.

Which melting point does the source give for `C=C1CC[C@H](O)C/C1=C/C=C1\CCC[C@]2(C)[C@@H]([C@H](C)CCCC(C)C)CC[C@@H]12` here?
The melting point was 84.5 °C.

For `CC(=O)N1C[C@H](O)C[C@H]1C(=O)O`, which melting point is on record?
Its melting point is 132 °C.

With `Cc1ccc(N)cc1Br` as the compound, how does the boiling point read?
Its boiling point is 256 °C.

And the melting point?
The melting point was 26 °C.

With `Cc1ccc([N+](=O)[O-])c2ccccc12` as the compound, how does the melting point read?
Its melting point is 71.5 °C.

For `c1cc(N(CC2CO2)CC2CO2)ccc1Cc1ccc(N(CC2CO2)CC2CO2)cc1` (stereo unspecified), which ready biodegradability is on record?
Its ready biodegradability is “not readily biodegradable”.

Which boiling point does the source give for `COC(=O)C1=CCCN(C)C1` here?
Its boiling point is 209 °C.

What about the log10 vapour pressure (mmHg) of the same compound?
The log10 vapour pressure (mmHg) was -1.1.

With `Cc1ccccc1C#N` as the compound, how does the boiling point read?
The boiling point was 205 °C.

What about the log10 vapour pressure (mmHg) of the same compound?
Its log10 vapour pressure (mmHg) is -0.348.

What about the melting point of the same compound?
The melting point was -13.5 °C.

Which log10 vapour pressure (mmHg) does the source give for `CSc1nnc(C(C)(C)C)c(=O)n1/N=C/C(C)C` here?
The log10 vapour pressure (mmHg) was -6.46.

And the melting point?
Its melting point is 159 °C.

Which results are given for `CCC(CC)C(=O)O`?
boiling point: 194 °C; log10 vapour pressure (mmHg): -0.726; melting point: -31.8 °C; ready biodegradability: readily biodegradable

Which melting point does the source give for `CC(C)(C)C(=O)OCOC(=O)[C@@H]1N2C(=O)[C@@H](N=CN3CCCCCC3)[C@H]2SC1(C)C` here?
Its melting point is 119 °C.

Which results are given for `Cc1[nH]c(=O)n(C(C)(C)C)c(=O)c1Cl`?
log10 Koc (L/kg): 1.66; log10 vapour pressure (mmHg): -6.33; melting point: 176 °C; ready biodegradability: not readily biodegradable

For `Cc1c(O)cc2c(c1C)OC(C)(CCCC(C)CCCC(C)CCCC(C)C)CC2` (stereo unspecified), which melting point is on record?
Its melting point is -3 °C.

For `O=C(O)c1ccccc1C(c1ccc(O)cc1)c1ccc(O)cc1`, which melting point is on record?
The melting point was 230 °C.

Which boiling point does the source give for `CCCCCCCCCCCCCCBr` here?
The boiling point was 307 °C.

What about the log10 vapour pressure (mmHg) of the same compound?
The log10 vapour pressure (mmHg) was -3.35.

And the melting point?
Its melting point is 5.6 °C.

Which boiling point does the source give for `C=C(C)OC` here?
The boiling point was 35 °C.

What about the log10 vapour pressure (mmHg) of the same compound?
Its log10 vapour pressure (mmHg) is 2.71.

With `O=C(O)c1cc(=O)cc(C(=O)O)o1` as the compound, how does the melting point read?
Its melting point is 262 °C.

For `Cc1ccc2oc(=O)ccc2c1`, which boiling point is on record?
The boiling point was 304 °C.

What about the melting point of the same compound?
The melting point was 76.5 °C.

Same assay, conditions: fish

Which log10 biotransformation half-life (days) does the source give for `Clc1ccc(Oc2cc(Cl)c(Cl)cc2Cl)c(Cl)c1` here?
The log10 biotransformation half-life (days) was 2.02.

With `CN(C)Cc1ccccc1` as the compound, how does the log10 BCF read?
Its log10 BCF is 1.15.

With `Clc1ccc(-c2ccc(Cl)c(Cl)c2)c(Cl)c1` as the compound, how does the log10 biotransformation half-life (days) read?
Its log10 biotransformation half-life (days) is 2.07.

For `Clc1ccc(-c2c(Cl)ccc(Cl)c2Cl)cc1Cl`, which log10 biotransformation half-life (days) is on record?
Its log10 biotransformation half-life (days) is 2.63.

Which log10 BCF does the source give for `CCOP(=S)(OCC)SCCSCC` here?
The log10 BCF was 2.34.

And the log10 biotransformation half-life (days)?
Its log10 biotransformation half-life (days) is 0.03.

With `O=C(c1ccccc1)c1ccccc1` as the compound, how does the log10 BCF read?
Its log10 BCF is 1.08.

For `Clc1cc(Cl)c(Cl)c(-c2cc(Cl)c(Cl)c(Cl)c2Cl)c1`, which log10 biotransformation half-life (days) is on record?
Its log10 biotransformation half-life (days) is 2.51.
